In patent publication US20230099204A1, “PHARMACEUTICAL COMPOSITION FOR PREVENTION OR TREATMENT OF CANCER IN WHICH KRAS MUTATION AND ACTIVATED RON ARE PRESENT” (WELLMARKER BIO CO., LTD., priority 2020, published 2023):
Where a name gives a salt, the structure may show the parent alone.

How the values were obtained:
[1] = test system: SNUC2A; experiment: MTS assay, cytotoxicity on colorectal cancer cell line SNUC2A; type: cell-based; conditions: RON mutation negative, KRAS G12D, 72 hours
Description: (§1) MTS assay was performed to compare cytotoxicity of the compounds of Example 1, Example 2, Example 3, Example 4, Example 5, Example 6, and positive control 1 on a colorectal cancer cell line, and a cell death rate of the colorectal cancer cell line was analyzed to compare anticancer activity of the compounds.
(§2) The MTS assay was performed by seeding each colorectal cell line in a 96-well plate at 1,000 cells per well, and after 24 hours, performing treatment with the compounds of Examples 1 to 6 and positive control 1 at various concentrations (0.000001 μM to 10 μM) in 100 μL of 10% FBS-RPMI medium (WELGENE Inc.) per well. The cells were incubated for 72 hours. Then, 20 μL of MTS solution (Promega) was added thereto, and the cells were incubated for 2 hours. Then, the absorbance was measured at 490 nm. The IC50 values for the compounds of Examples 1 to 6 and positive control 1 were calculated using GraphPad Prism™ 5 to investigate cytotoxicity.

[2] = test system: T84; experiment: MTS assay, cytotoxicity on colorectal cancer cell line T84; type: cell-based; conditions: Homo sapiens, RON Δ165, KRAS G13D, 72 hours
Description: as §1, §2

[3] = test system: HCT8; experiment: MTS assay, cytotoxicity on colorectal cancer cell line HCT8; type: cell-based; conditions: Homo sapiens, HCT-8, RON wt, KRAS G13D, 72 hours
Description: as §1, §2

[4] = test system: DLD1; experiment: MTS assay, cytotoxicity on colorectal cancer cell line DLD1; type: cell-based; conditions: Homo sapiens, DLD-1, RON wt, KRAS G13D, 72 hours
Description: as §1, §2

[5] = test system: SW480; experiment: MTS assay, cytotoxicity on colorectal cancer cell line SW480; type: cell-based; conditions: Homo sapiens, RON Δ155, KRAS G12V, 72 hours
Description: as §1, §2

[6] = test system: HCT15; experiment: MTS assay, cytotoxicity on colorectal cancer cell line HCT15; type: cell-based; conditions: Homo sapiens, HCT-15, RON Δ160, KRAS G13D, 72 hours
Description: as §1, §2

[7] = test system: SW620; experiment: MTS assay, cytotoxicity on colorectal cancer cell line SW620; type: cell-based; conditions: Homo sapiens, SW-620, RON Δ155, KRAS G12V, 72 hours
Description: as §1, §2

[8] = test system: colorectal cancer cell line; experiment: MTS assay, summary over the colorectal cancer cell lines; type: cell-based; conditions: summary in words of Table 1
Description: as §1, §2

[9] = test system: SW620; experiment: Cell death induction, trypan blue cell counting, SW620; type: cell-based, human; conditions: 1 μM, 48 hours; for cell death rate: SW620 (KRAS G12V/mRON Δ155), FIG. 2
Description: (§3) Based on the results above, to identify the cell death-inducing ability of the compounds of Example 1 and positive control 1, which are representative materials, preparation was performed by seeding respective colorectal cancer cell lines SNU-[…], HCT8, T84, and SW620 onto 60-mm plates at 3×10^5 cells, and then incubation was performed for 24 hours. Thereafter, treatment with each of Example 1 and positive control 1 was performed at 1μM and incubation was performed for 48 hours. In addition, preparation was performed by seeding the cell line SW620 onto a 60-mm plate at 3×10^5 cells, and then incubation was performed for 24 hours. Thereafter, treatment with each of Example 1, positive control 1, positive control 2, and positive control 3 was performed at 1 μM. After 48 hours, the cells and cell suspensions were collected by treatment with trypsin, resuspended in 1× PBS and stained using a trypan blue solution (Sigma, cat# T8154). The stained cells were counted using a hemocytometer. Cell counting was repeated, and the mean and the standard deviation were calculated.

[10] = test system: HCT8 (KRAS G13D/pTyr-wtRON(+)); experiment: Cell line HCT8-transplanted mouse model; type: in vivo, BALB/c nude mice; conditions: 10 mg/kg, oral, once a day for 4 weeks
Description: 5-Week-old female BALB/c nude mice were purchased and acclimatized for 1 week. Then, human colorectal cancer patient-derived cell line SW620 (KRAS
G12V/mRON Δ155) at 5×10^6 cells/mouse was injected subcutaneously (100 μL) into the right dorsal side of the mice. The compound of Example 1 was orally administered when the tumor reached a size of about 100 mm^3. The drug was administered once a day for 4 weeks, and tumor size and mouse body weight were measured twice a week. After completion of the drug administration, the experimental animals were euthanized, and then the tumors were extracted and weighed for comparative analysis.
A portion of the extracted tumor tissue was fixed in 10% formalin and processed into a paraffin block. Then, the block was made into sections. Staining of the slide was performed through immunochemical staining. Another portion of the extracted tumor tissue was subjected to lysis, and then Western blotting was used to identify changes in expression of respective proteins.
The experiment was conducted in the same method as the procedure of Experimental Example 3, except that human colorectal cancer patient-derived cell line HCT8 (KRAS G13D/pTyr-wtRON(+)) was used in place of the human colorectal cancer patient-derived cell line SW620 (KRAS G12V/mRON Δ155), and the respective compounds of Example 1, positive control 1, and positive control 2 were administered.

[11] = test system: T84; experiment: Cell death induction, trypan blue cell counting, T84; type: cell-based; conditions: T84 with a RON mutation; 1 μM; 48 hours; FIG. 1
Description: as §3, with “hours.” for “hours. In addition, preparation was performed by seeding the cell line SW620 onto a 60-mm plate at 3×10^5 cells, and then incubation was performed for 24 hours. Thereafter, treatment with each of Example 1, positive control 1, positive control 2, and positive control 3 was performed at 1 μM.”

Compound	IC50 [1]	IC50 [2]	IC50 [3]	IC50 [4]	IC50 [5]	IC50 [6]	IC50 [7]	efficiency / response in MTS assay over the cell lines [8]	cell death rate [9]	cell death induction efficacy ([9]; SW620 with a RON mutation, FIG. 1)	Tumor growth inhibition (TGI, %) [10]	cell death induction efficacy [11]
CCOc1ccn(-c2ccccc2)c(=O)c1C(=O)Nc1ccc(Oc2ccnc3cc(-c4ccc(CNCCOC)cn4)sc23)c(F)c1 [Example 2, 4-ethoxy-N-(3-fluoro-4-{[2-(5-{[(2-methoxyethyl)amino]methyl}pyridine-2-yl)thieno[3,2-b]pyridine-7-yl]oxy}phenyl)-2-oxo-1-phenyl-1,2-dihydropyridine-3-carboxamide hydrochloride]	4.44 µM	210 nM	260 nM	210 nM	1250 nM	220 nM	370 nM					
CCOc1ccn(-c2ccccc2)c(=O)c1C(=O)Nc1ccc(Oc2ccnc3cc(-c4ccc(CN5CCN(C)CC5)cn4)sc23)c(F)c1 [Example 3, 4-ethoxy-N-{3-fluoro-4-[(2-{5-[(4-methylpiperazin-1-yl)methyl]pyridin-2-yl}thieno[3,2-b]pyridin-7-yl)oxy]phenyl}-2-oxo-1-phenyl-1,2-dihydropyridine-3-carboxamide hydrochloride]	4.6 µM	220 nM	480 nM	300 nM	660 nM	390 nM	260 nM					
Cn1cnc(-c2cc3nccc(Oc4ccc(NC(=O)c5c6c(cn(-c7ccc(F)cc7)c5=O)CCO6)cc4F)c3s2)c1 [Example 4]	7.53 µM	170 nM	1200 nM	660 nM	670 nM	1270 nM	> 10000 nM	high efficiency in the cell lines (HCT8 and DLD-1)				
COc1cc2c(Oc3ccc(NC(=O)c4c5c(cn(-c6ccc(F)cc6)c4=O)CCO5)cc3F)ccnc2cc1OCCN1CCOCC1 [Example 5, N-(3-fluoro-4-((6-methoxy-7-(2-morpholinoethoxy)quinolin-4-yl)oxy)phenyl)-5-(4-fluorophenyl)-6-oxo-2,3,5,6-tetrahydrofuro[3,2-c]pyridine-7-carboxamide]	3.82 µM	810 nM	780 nM	230 nM	110 nM	390 nM	1000 nM					
COc1cc2c(Oc3ccc(NC(=O)c4c5c(cn(-c6ccc(F)cc6)c4=O)CCO5)cc3F)ccnc2cc1OCCCN1CC(C#N)C1 [Example 6, N-(4-((7-(3-(3-cyanoazetidine-1-yl)propoxy)-6-methoxyquinoline-4-yl)oxy)-3-fluorophenyl)-5-(4-fluorophenyl)-6-oxo-2,3,5,6-tetrahydrofuro[3,2-c]pyridine-7-carboxamide]	1.32 µM	200 nM	330 nM	170 nM	320 nM	140 nM	110 nM					
CCOc1ccn(-c2ccc(F)cc2)c(=O)c1C(=O)Nc1ccc(Oc2ccnc(N)c2Cl)c(F)c1 [Positive control 1, N-{4-[(2-amino-3-chloro-4-pyridinyl)oxy]-3-fluorophenyl}-4-ethoxy-1-(4-fluorophenyl)-2-oxo-1,2-dihydro-3-pyridinecarboxamide, reference compound]	> 10 µM	8400 nM	7320 nM	4720 nM	3540 nM	3240 nM	5000 nM	high IC50 values in most cell lines	cell death was not induced	little response	−7.5 ± 36.3%	little response
C[C@@H](Oc1cc(-c2cnn(C3CCNCC3)c2)cnc1N)c1c(Cl)ccc(F)c1Cl [Positive control 2, reference compound]									cell death was not induced		23.2 ± 7.8%	
COc1cc2nccc(Oc3ccc(NC(=O)C4(C(=O)Nc5ccc(F)cc5)CC4)cc3)c2cc1OC [Positive control 3, N-(4-{[6,7-bis(methyloxy)quinoline-4-yl]oxy}phenyl)-N′-(4-fluorophenyl)cyclopropane-1,1-dicarboxamide]									cell death was not induced			
